Values after ≈ are worked out from the molar mass of the structure shown. Where two headings read alike, the source gives them in different places. Marks after values point to notes of the source that are not given here.
How the values were obtained:
E. coli ATCC 25922 = assay: Broth microdilution MIC in chemically defined minimal medium; type: cell-based; settings: for phenotype induced by treatment (L-Gln dependence of growth): E. coli in minimal medium with or without L-Gln
E. coli ATCC 29522 = assay: Growth curves; type: cell-based
E. coli GS [1] = target: T1, E. coli GS (Escherichia coli, UniProt P0A9C5); settings: cited from earlier work
human GS = settings: cited from earlier work
[2] = target: recombinant N-His6-tagged GS from E. coli (Escherichia coli, UniProt P0A9C5); assay: biochemical; type: biochemical; settings: for kinact: pH 7.4
[3] = target: recombinant N-His6-tagged GS from S. aureus (Staphylococcus aureus, UniProt P0A040); assay: biochemical; type: biochemical; settings: for kinact: pH 7.4
[4] = target: recombinant N-His6-tagged GS from Homo sapiens (Homo sapiens, UniProt P15104); assay: biochemical; type: biochemical; settings: for kinact: pH 7.4
recombinant N-His6-tagged GS from Homo sapiens, sequence (P15104 whole entry): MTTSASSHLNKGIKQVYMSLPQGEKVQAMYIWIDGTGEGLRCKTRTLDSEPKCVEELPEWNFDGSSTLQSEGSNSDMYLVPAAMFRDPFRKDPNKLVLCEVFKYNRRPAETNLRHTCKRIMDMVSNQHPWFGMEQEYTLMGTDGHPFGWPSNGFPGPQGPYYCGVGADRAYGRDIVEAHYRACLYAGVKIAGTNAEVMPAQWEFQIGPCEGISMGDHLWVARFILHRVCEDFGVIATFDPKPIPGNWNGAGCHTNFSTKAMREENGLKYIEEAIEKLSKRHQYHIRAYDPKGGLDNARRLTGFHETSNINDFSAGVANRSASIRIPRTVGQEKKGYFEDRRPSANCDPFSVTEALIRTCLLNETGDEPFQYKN

[5] = test system: unadenylylated E. coli GS; settings: read-out: KI (literature); cited from earlier work
E. coli GS [6] = target: T1, E. coli GS; settings: cited from earlier work; remark: listed apart in the source
E. coli GS [7] = target: T1, E. coli GS; type: biochemical; settings: apparent, saturating ATP (10 mM) and NH3 (10 mM)
recombinant S. aureus GS = recombinant S. aureus GS (Staphylococcus aureus, UniProt P0A040); type: biochemical; settings: apparent, saturating ATP (10 mM) and NH3 (10 mM)
recombinant human GS = recombinant human GS (Homo sapiens, UniProt P15104); type: biochemical; settings: apparent, saturating ATP (10 mM) and NH3 (10 mM)
recombinant human GS, sequence (P15104 whole entry): as above

[8] = test system: GS isolated from Leishmania donovani; settings: read-out: apparent Km for L-Glu (literature); cited from earlier work
M. tuberculosis = settings: in vivo, cited from earlier work
GS = settings: relative to Glufos; cited from earlier work
[9] = 23 °C, pH 7.2 phosphate buffer; isomerization to TδL-Thr; cited from earlier work
[10] = substrate: N[C@@H](CCC(=O)O)C(=O)O; assay: purified protein, by the assay type; type: biochemical; settings: pH 7.4
[11] = substrate: Nc1ncnc2c1ncn2[C@@H]1O[C@H](COP(=O)(O)OP(=O)(O)OP(=O)(O)O)[C@@H](O)[C@H]1O; assay: purified protein, by the assay type; settings: other: apparent; saturating L-Glu (50 mM) and NH3 (10 mM); pH 7.4; 37.0 °C
[12] = end point, minimal medium, no amino acid supplement, 37 °C, 18–24 h
[13] = minimal medium supplemented with 5 mM L-Glu
[14] = read-out: apparent Km for ATP (literature)
[15] = apparent, Kitz–Wilson fit, 37 °C

C[C@H](N)C(=O)N[C@@H](C)C(=O)NC(CCP(C)(=O)O)C(=O)O (stereo partly drawn) [AAG, L-Ala-L-Ala-Glufos]
phenotype induced by treatment (L-Gln dependence of growth) (E. coli ATCC 25922): glutamine auxotrophy
MIC90 (E. coli ATCC 25922; [12]): 0.0005 mM (≈ 0.162 µg/mL)
MIC90 (E. coli ATCC 25922; [13]): 0.001 mM (≈ 0.323 µg/mL)
time for which growth was fully suppressed (E. coli ATCC 29522; 2 μM): > 66 h

Nc1ncnc2c1ncn2[C@@H]1O[C@H](COP(=O)(O)OP(=O)(O)OP(=O)(O)O)[C@@H](O)[C@H]1O [ATP, adenosine triphosphate]
Km (E. coli GS [1]; [14]): 0.1 to 0.7 mM
Km (human GS; [14]): 1.8 to 2.8 mM

CP(=O)(O)CCC(N)C(=O)O (centres unmarked) [Glufos, glufosinate]
kinact/KI [2]: 11700 M⁻¹ s⁻¹
difference in inhibitor efficiency (kinact/KI) for E. coli and human GS ([2]; E. coli GS versus human GS): 120 fold
kinact [2]: 0.7 min⁻¹
kinact/KI [3]: 500 M⁻¹ s⁻¹
kinact [3]: 0.00667 s⁻¹
kinact/KI [4]: 100 M⁻¹ s⁻¹
kinact [4]: 0.9 min⁻¹
Ki [5]: 1000 nM

C[P@](=O)(CC[C@H](N)C(=O)O)OP(=O)(O)O [Glufos-Pi, phospho-glufosinate]
number of GS active sites occupied (of 12) (E. coli GS [6]): 11

N[C@@H](CCC(=O)O)C(=O)O [L-Glu]
kcat (L-Glu) (E. coli GS [7]): 131.7 ± 5 s⁻¹
Km (E. coli GS [7]; read-out: Km (L-Glu)): 7.2 ± 0.8 mM
kcat (L-Glu) (recombinant S. aureus GS): 23.33 ± 1.67 s⁻¹
Km (recombinant S. aureus GS; read-out: Km (L-Glu)): 52 ± 7 mM
kcat (L-Glu) (recombinant human GS): 85 ± 5 s⁻¹
Km (recombinant human GS; read-out: Km (L-Glu)): 37 ± 5 mM
Km (E. coli GS [1]; read-out: apparent Km for L-Glu (literature)): 0.8 to 6.6 mM
Km (human GS; read-out: L-Glu Km (literature), recombinant human enzyme expressed in E. coli, colorimetric assay): 3.5 ± 0.7 mM
Km [8]: 26.3 ± 0.4 mM

CS(=N)(=O)CC[C@H](N)C(=O)O (some centres unmarked) [MetSox, Methionine sulfoximine]
difference in inhibitor efficiency (kinact/KI) for E. coli and human GS [2]: 250 fold
kinact/KI [2]: 100 ± 40 min^−1μM^−1 ×10^3
kinact [2]: 0.4 ± 0.1 min⁻¹
kinact/KI ([3]; apparent inhibitor efficiency): 28 ± 9 min^−1μM^−1 ×10^3
kinact/KI ([4]; apparent inhibitor efficiency): 0.4 ± 0.3 min^−1μM^−1 ×10^3
kinact [4, 15]: 0.4 ± 0.2 min⁻¹
Ki [5]: 2000 nM
tolerability (M. tuberculosis; guinea pig): well tolerated
efficacy in guinea pig lung infection model (M. tuberculosis): effective and synergistic with isoniazid

CS(=O)(CCC(N)C(=O)O)=NP(=O)(O)O (centres unmarked) [MetSox-Pi, phospho-methionine sulfoximine]
active site occupancy (E. coli GS [6]): ~ 80%

N[C@@H](CC[C@]1(O)CNC1=O)C(=O)O [TβL, Tabtoxinine-β-lactam]
kinact/KI (inhibitor efficiency) [2]: 180 ± 70 min^−1μM^−1
difference in inhibitor efficiency (kinact/KI) for E. coli and human GS ([2]; E. coli GS versus human GS): 90 fold
kinact/KI ([2]; apparent inhibitor efficiency): 180 ± 70 min^−1μM^−1 ×10^3
kinact [2, 15]: 0.3 ± 0.1 min⁻¹
recovery of GS activity after dialysis of inhibition complex ([2]; several days of dialysis at 4 °C and 37 °C): could not be recovered
kinact/KI (inhibitor efficiency) [3]: 8 ± 3 min^−1μM^−1
kinact/KI ([3]; apparent inhibitor efficiency): 8 ± 3 min^−1μM^−1 ×10^3
kinact [3, 15]: 0.0067 ± 0.0017 s⁻¹
kinact/KI (inhibitor efficiency) [4]: 2 ± 1 min^−1μM^−1
kinact/KI ([4]; apparent inhibitor efficiency): 2 ± 1 min^−1μM^−1 ×10^3
kinact [4, 15]: 0.3 ± 0.1 min⁻¹

C[C@H](NC(=O)[C@H](C)NC(=O)[C@@H](N)CCP(C)(=O)[O-])C(=O)O.[Na+] [bialaphos sodium salt, Glufos-L-Ala-L-Ala tripeptide, reference compound]
phenotype induced by treatment (L-Gln dependence of growth) (E. coli ATCC 25922): confirmed

NC[C@H]1O[C@H](O[C@H]2[C@H](O)[C@@H](O[C@H]3O[C@H](CO)[C@@H](O)[C@H](N)[C@H]3O)[C@H](N)C[C@@H]2N)[C@H](O)[C@@H](O)[C@@H]1O [kanamycin, reference compound]
MIC (E. coli ATCC 25922; control antibiotic on every plate, minimal medium): 0.008 mM (≈ 3.88 µg/mL)

CP(=O)(O)C(O)CC(N)C(=O)O (centres unmarked) [γ-hydroxylated variant of Glufos]
increase of the rate of GS activation (GS): 50%

tabtoxin [TβL-Thr]
phenotype induced by treatment (L-Gln dependence of growth) (E. coli ATCC 25922): glutamine auxotrophy
MIC90 (E. coli ATCC 25922; [12]): 0.0005 mM
MIC90 (E. coli ATCC 25922; [13]): 0.001 mM
growth curve with L-Gln supplementation (E. coli ATCC 29522; 2 μM, L-Gln supplementation 2.5 mM): matched the control
growth with L-Gln supplementation (E. coli ATCC 29522; 2 μM, medium supplemented with 0.1 mM L-Gln): recovered to near control levels
time after which growth started to recover (E. coli ATCC 29522; 2 μM, minimal medium): 26 h
time for which growth was suppressed (E. coli ATCC 29522; 100 μM): > 50 h
isomerization half-life [9]: 37 h

B1: S. aureus GS (SA) (Staphylococcus aureus subsp. aureus N315) (protein)
chain: MPKRTFTKEDIRKFAEEENVRYLRLQFTDILGTIKNVEVPVSQLEKVLDNEMMFDGSSIEGFVRIEESDMYLHPDLDTWVIFPWTAGQGKVARLICDVYKTDGTPFEGDPRANLKRVLKEMEDLGFTDFNLGPEPEFFLFKLDEKGEPTLELNDDGGYFDLAPTDLGENCRRDIVLELEDMGFDIEASHHEVAPGQHEIDFKYADAVTACDNIQTFKLVVKTIARKHNLHATFMPKPLFGVNGSGMHFNVSLFKGKENAFFDPNTEMGLTETAYQFTAGVLKNARGFTAVCNPLVNSYKRLVPGYEAPCYIAWSGKNRSPLIRVPSSRGLSTRIEVRSVDPAANPYMALAAILEAGLDGIKNKLKVPEPVNQNIYEMNREEREAVGIQDLPSTLYTALKAMRENEVIKKALGNHIYNQFINSKSIEWDYYRTQVSEWERDQYMKQY
Km [10]: 52 ± 7 mM
kcat [10]: 23.3 ± 1.67 s⁻¹
kcat/Km [10]: 450 ± 66.7 M⁻¹ s⁻¹

B2: recombinant S. aureus GS (Staphylococcus aureus) (protein)
chain: MPKRTFTKDDIRKFAEEENVRYLRLQFTDILGTIKNVEVPVSQLEKVLDNEMMFDGSSIEGFVRIEESDMYLHPDLDTWVIFPWTAGQGKVARLICDVYKTDGTPFEGDPRANLKRVLKEMEDLGFTDFNLGPEPEFFLFKLDEKGEPTLELNDDGGYFDLAPTDLGENCRRDIVLELEDMGFDIEASHHEVAPGQHEIDFKYADAVTACDNIQTFKLVVKTIARKHNLHATFMPKPLFGVNGSGMHFNVSLFKGKENAFFDPNTEMGLTETAYQFTAGVLKNARGFTAVCNPLVNSYKRLVPGYEAPCYIAWSGKNRSPLIRVPSSRGLSTRIEVRSVDPAANPYMALAAILEAGLDGIKNKLKVPEPVNQNIYEMNREEREAVGIQDLPSTLYTALKAMRENEVIKKALGNHIYNQFINSKSIEWDYYRTQVSEWERDQYMKQY
Km [11]: 1.8 ± 0.1 mM
kcat [11]: 12 s⁻¹
kcat/Km [11]: 6670 M⁻¹ s⁻¹

B3: E. coli GS (EC) (Escherichia coli K-12) (protein)
chain: SAEHVLTMLNEHEVKFVDLRFTDTKGKEQHVTIPAHQVNAEFFEEGKMFDGSSIGGWKGINESDMVLMPDASTAVIDPFFADSTLIIRCDILEPGTLQGYDRDPRSIAKRAEDYLRSTGIADTVLFGPEPEFFLFDDIRFGSSISGSHVAIDDIEGAWNSSTQYEGGNKGHRPAVKGGYFPVPPVDSAQDIRSEMCLVMEQMGLVVEAHHHEVATAGQNEVATRFNTMTKKADEIQIYKYVVHNVAHRFGKTATFMPKPMFGDNGSGMHCHMSLSKNGVNLFAGDKYAGLSEQALYYIGGVIKHAKAINALANPTTNSYKRLVPGYEAPVMLAYSARNRSASIRIPVVSSPKARRIEVRFPDPAANPYLCFAALLMAGLDGIKNKIHPGEAMDKNLYDLPPEEAKEIPQVAGSLEEALNELDLDREFLKAGGVFTDEAIDAYIALRREEDDRVRMTPHPVEFELYYSV
Km [10]: 7.2 ± 0.8 mM
kcat [10]: 132 ± 5 s⁻¹
kcat/Km [10]: 18300 ± 1670 M⁻¹ s⁻¹

B4: recombinant E. coli GS (Escherichia coli K-12) (protein)
chain: MSAEHVLTMLNEHEVKFVDLRFTDTKGKEQHVTIPAHQVNAEFFEEGKMFDGSSIGGWKGINESDMVLMPDASTAVIDPFFADSTLIIRCDILEPGTLQGYDRDPRSIAKRAEDYLRSTGIADTVLFGPEPEFFLFDDIRFGSSISGSHVAIDDIEGAWNSSTQYEGGNKGHRPAVKGGYFPVPPVDSAQDIRSEMCLVMEQMGLVVEAHHHEVATAGQNEVATRFNTMTKKADEIQIYKYVVHNVAHRFGKTATFMPKPMFGDNGSGMHCHMSLSKNGVNLFAGDKYAGLSEQALYYIGGVIKHAKAINALANPTTNSYKRLVPGYEAPVMLAYSARNRSASIRIPVVSSPKARRIEVRFPDPAANPYLCFAALLMAGLDGIKNKIHPGEAMDKNLYDLPPEEAKEIPQVAGSLEEALNELDLDREFLKAGGVFTDEAIDAYIALRREEDDRVRMTPHPVEFELYYSV
Km [11]: 0.7 ± 0.1 ^a mM
kcat [11]: 122 s⁻¹
kcat/Km [11]: 173000 M⁻¹ s⁻¹

— PMC5934995 (Biochemistry, 2017)
